Measured values as given in PMC9823331, “Permeability of New Antifungal Fluconazole Derivatives through a Lipophilic Membrane: Experiment and Modeling” (Molecules, 2023).

How the values were obtained:
[1] = design: method as in PMID 33713781; conditions: cited from earlier work
[2] = tested on: C. parapsilosis ATCC 22019; design: method as in earlier work; conditions: cited from earlier work
[3] = Distribution in the 1-octanol/buffer pH 7.4 system; format: physicochemical; conditions: calculated by Henderson–Hasselbalch equation
[4] = Membrane permeability assay through the PermeaPad barrier (Franz diffusion cell); format: in vitro ADME; conditions: buffer pH 7.4, 37 °C, values are Papp multiplied by 10^5, read-out: Papp⋅10^5, apparent permeability coefficient
Text: A vertical-type Franz diffusion cell (PermeGear, Inc., Hellertown, PA, USA) was used to measure the permeability of the studied compounds. The biomimetic lipophilic PermeaPad barrier (PHABIOC, Germany, www.permeapad.com, accessed on 20 May 2021) fully described by di Cagno et al. was employed in the present study to simulate the morphology and properties of the biologic membranes. This membrane was chosen because of its advantageous properties and user friendliness. PermeaPad belongs to cell-free permeation systems. It is composed of two cellulose membranes with a thin layer of phosphatidylcholine (S-100) between them. […]
Firstly, the donor chamber was filled with the donor solution of the tested compound in buffer pH 7.4, then the PermeaPad barrier was mounted between the donor and receptor parts of the diffusion cell (0.785 cm^2 effective surface area) carefully avoiding the air bubbles (which can minimize the active area of the membrane, thus, slowing the permeation). […] The sample solution concentrations were measured spectrophotometrically (Spectramax 190; Molecular Devices, Molecular Devices Corporation, San Jose, CA, USA) in 96-well UV black plates (Costar) at λ = 270 nm. […]
The apparent permeability coefficient (Papp) was calculated by normalizing the slope (J) by the compound concentration in the donor solution (C0) by the equation:(9) Papp=J/C0 […]

| Compound | logKoct/buf, apparent distribution coefficient in the 1-octanol/buffer pH 7.4 system [1] | log(1/MIC) [2] | logK0, distribution coefficient for the uncharged particles [3] | Papp at 5 h [4] [×10⁻⁶ cm/s] |
| --- | --- | --- | --- | --- |
| Cc1ccc(-n2c(=S)sc3c(=O)n(CC(O)(Cn4cncn4)c4ccc(F)cc4F)cnc32)cc1 (centres unmarked) [I, N-[2-(2,4-difluorophenyl)-2-hydroxy-3-(1,2,4-triazol-1-yl)propyl]-3-(p-tolyl)-2-thioxo-thiazolo[4,5-d]pyrimidin-7-one] | 0.79 | -1.51 |  |  |
| COc1ccccc1-n1c(=S)sc2c(=O)n(CC(O)(Cn3cncn3)c3ccc(F)cc3F)cnc21 (centres unmarked) [II, N-[2-(2,4-difluorophenyl)-2-hydroxy-3-(1,2,4-triazol-1-yl)propyl]-3-(2-methoxyphenyl)-2-thioxo-thiazolo[4,5-d]pyrimidin-7-one] |  | -0.90 | -4.66 |  |
| O=c1c2sc(=S)n(-c3ccc(F)cc3)c2ncn1CC(O)(Cn1cncn1)c1ccc(F)cc1F (centres unmarked) [III, N-[2-(2,4-difluorophenyl)-2-hydroxy-3-(1,2,4-triazol-1-yl)propyl]-3-(4-fluorophenyl)-2-thioxo-thiazolo[4,5-d]pyrimidin-7-one] |  | -1.51 | -4.76 |  |
| Cc1ccc(-n2c(=S)sc3c(=O)n(CC(=O)NCC(O)(Cn4cncn4)c4ccc(F)cc4F)cnc32)cc1 (centres unmarked) [IV, N-[2-(2,4-difluorophenyl)-2-hydroxy-3-(1,2,4-triazol-1-yl)propyl]-2-[7-oxo-3-(p-tolyl)-2-thioxo-thiazolo[4,5-d]pyrimidin-6-yl]acetamide] | 1.27 | -1.51 | -4.68 |  |
| O=C(Cn1cnc2c(sc(=S)n2-c2ccc(Cl)cc2)c1=O)NCC(O)(Cn1cncn1)c1ccc(F)cc1F (centres unmarked) [V, N-[2-(2,4-difluorophenyl)-2-hydroxy-3-(1,2,4-triazol-1-yl)propyl]-2-[3-(4-chlorophenyl)-7-oxo-2-thioxo-thiazolo[4,5-d]pyrimidin-6-yl]-acetamide] |  | -1.51 | -4.69 |  |
| O=C(Cn1cnc2c(sc(=S)n2-c2ccc(F)cc2)c1=O)NCC(O)(Cn1cncn1)c1ccc(F)cc1F (centres unmarked) [VI, N-[2-(2,4-difluorophenyl)-2-hydroxy-3-(1,2,4-triazol-1-yl)propyl]-2-[3-(4-fluorophenyl)-7-oxo-2-thioxo-thiazolo[4,5-d]pyrimidin-6-yl]acetamide] |  | -1.51 | -4.72 |  |
| COc1ccccc1-n1c(=S)sc2c(=O)n(CC(=O)NCC(O)(Cn3cncn3)c3ccc(F)cc3F)cnc21 (centres unmarked) [VII, N-[2-(2,4-difluorophenyl)-2-hydroxy-3-(1,2,4-triazol-1-yl)propyl]-2-[3-(2-methoxyphenyl)-7-oxo-2-thioxo-thiazolo[4,5-d]pyrimidin-6-yl]acetamide] | 0.80 | -1.51 | -4.73 |  |
| Cc1ccc(-n2c(=S)sc3c(=O)n(CCN4CCN(CC(O)(Cn5cncn5)c5ccc(F)cc5F)CC4)cnc32)cc1 (centres unmarked) [XII, N-[2-[4-[2-(2,4-difluorophenyl)-2-hydroxy-3-(1,2,4-triazol-1-yl)propyl]piperazin-1-yl]ethyl]-2-methyl-3-(p-tolyl)-2-thioxo-thiazolo[4,5-d]pyrimidin-7-one] | 2.90 | 0.30 | -3.95 | 18.8 ± 0.42 |
